The record followed here is ChEMBL document CHEMBL1138342, “Dual inhibitors of inosine monophosphate dehydrogenase and histone deacetylases for cancer treatment” (J Med Chem, 2007).

Each structure is given as a SMILES string. The source made the active and inactive calls. No cut-off for these calls is given here. Bounds are passed on as bounds.

In general, IC50 refers to the concentration that gives 50% inhibition. A higher IC50 goes with a need for much substance. The Ki is the equilibrium dissociation constant of an inhibitor or competing ligand from its target. Higher therefore signals a looser hold on the target.

Experiment [1] deals with K562. Description: cells. The experiment is classed as functional, cell-based. Particulars: Homo sapiens, K562, 72 h.
A further experiment has as its target Histone deacetylase. The experiment is classed as protein assay, Homo sapiens.
Experiment [2] concerns the target Inosine-5'-monophosphate dehydrogenase 1 (Homo sapiens, UniProt P20839). Description: Inhibition of human IMPDH 1.
Experiment [3] deals with Inosine-5'-monophosphate dehydrogenase 2 (Homo sapiens, UniProt P12268). Description: Inhibition of human IMPDH 2.
Experiment [4] deals with K562. Description: Differentiation of K562 cells at 0.25 uM after 5 days by […]. The experiment is classed as functional, Homo sapiens. In general terms: Formazan colour is commonly taken as a measure of viable cells.
The test system of experiment [5] is K562. Kind of experiment: Differentiation of K562 cells at 0.005 uM after 5 days by […]. The experiment is classed as functional, Homo sapiens.
Experiment [6] has as its system K562. Kind of experiment: Differentiation of K562 cells at 0.50 uM after 5 days by […]. The experiment is classed as functional, Homo sapiens.

As for `COc1c(C)c2c(c(O)c1C/C=C(\C)CCCC(=O)NO)C(=O)OC2`, the IC50 with K562 [1] turned out to be 10.8 µM; on Histone deacetylase it was 10.4 µM. For the same molecule, the Ki in experiment [2] amounted to 0.4 µM; in experiment [3], 1.1 µM.

The molecule `COc1c(C)c2c(c(O)c1C/C=C(\C)CCC(=O)O)C(=O)OC2` [MYCOPHENOLIC ACID] yielded an Activity in the experiment with K562 [4] of 46.4%.

Turning to `COc1cc(NC(=O)CCCCCCC(=O)NO)ccc1-c1cnco1`, the IC50 was 0.29 µM with K562 [1] and 0.06 µM against Histone deacetylase. In the experiment on K562 [5], this molecule came in with an Activity of 87.8%. The Ki amounted to 5 µM in experiment [2] and 1.7 µM in experiment [3].

Turning to `COc1c(C)c2c(c(O)c1C/C=C(\C)CCC(=O)NO)C(=O)OC2` [MYCOPHENOLIC HYDROXAMIC ACID], the values for the half-inhibitory concentration (IC50) with K562 [1] and against Histone deacetylase were 4.8 µM and 5 µM, respectively. Moreover, in the experiment with K562 [4], the Activity is recorded as 75%. The Ki in experiment [2] came to 0.07 µM; in experiment [3], 0.03 µM.

In the case of `COc1c(C)c2c(c(O)c1CCC(C)CCC(=O)NO)C(=O)OC2` (stereo not given), the half-maximal inhibitory concentration (IC50) was 44.7 µM with K562 [1] and 20.1 µM against Histone deacetylase. The results for the Ki in experiment [2] and in experiment [3] were 2.07 µM and 0.54 µM, respectively.

Turning to `O=C(CCCCCCC(=O)Nc1ccccc1)NO` [VORINOSTAT], the result in experiment [2] and in experiment [3] was inactive. In the experiment with K562 [6], this molecule registered an Activity of 47.4%.

As for `COc1c(C)c2c(c(O)c1C/C=C(\C)CCC(=O)Nc1ccccc1N)C(=O)OC2`, the 50% inhibitory concentration (IC50) in the experiment on K562 [1] is 60 µM; against Histone deacetylase, > 100 µM. Moreover, the Ki in experiment [2] turned out to be 2.83 µM; in experiment [3], 0.65 µM.

`COc1c(C)c2c(c(OC)c1C/C=C(\C)CCC(=O)NO)C(=O)OC2`: the IC50 in the experiment on K562 [1] turned out to be 42.3 µM; against Histone deacetylase it was 14 µM. In addition, the result in experiment [2] and in experiment [3] was inactive.
